Laboratory results from the supplement of paper PMC4862054.

Key:
Experiment in all cases: normalised viability (% of control), CellTiter-Blue; higher = more viable cells (about 100 = DMSO control)
Details in all cases: incubation time: 72 h
[1] = system: BT-549
Outline: (§1)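 After 72 h on compound-loaded 384-well plates, breast cancer cell lines received 2.5 µl CellTiter-Blue reagent for 2 h at 37 °C. Fluorescence at 560/590 nm was scaled per plate so that vehicle was 100 and a positive kill control was 0. The value stands for normalised viability at a single listed concentration of the series.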

[2] = system: BT-474
Outline: as §1

[3] = system: HDQ-P1
Outline: as §1

[4] = system: DU-4475
Outline: as §1

[5] = system: MDA-MB-468
Outline: as §1

[6] = system: Hs578T
Outline: as §1

[7] = system: HCC1599
Outline: as §1

[8] = system: HCC1937
Outline: as §1

[9] = system: SK-BR-3
Outline: as §1

[10] = system: CAL-85-1
Outline: as §1

[11] = system: MDA-MB-436
Outline: as §1

[12] = system: MDA-MB-453
Outline: as §1

[13] = system: CAL-120
Outline: as §1

[14] = system: HCC1143
Outline: as §1

[15] = system: MDA-MB-231
Outline: as §1

[16] = system: CAL-51
Outline: as §1

[17] = system: CAL-148
Outline: as §1

[18] = system: MFM-223
Outline: as §1

CC(=O)c1c(C)c2cnc(Nc3ccc(N4CCNCC4)cn3)nc2n(C2CCCC2)c1=O
normalised viability [%]
Details | 3 nM | 10 nM | 30 nM | 100 nM | 1000 nM | 10000 nM
[1] | – | 101 | – | – | 109 | 85.2
[2] | – | 108 | – | – | 105 | 67
[3] | 95.2 | – | 99.9 | 99.5 | – | –
[4] | 104 | – | 99.7 | 105 | – | –
[5] | – | 115 | – | – | 99.8 | 85.3
[6] | – | 100 | – | – | 83.9 | 71.5
[7] | – | 93.3 | – | – | 109 | 89.3
[8] | – | 38.9 | – | – | 102 | 67.9
[9] | – | 100 | – | – | 110 | 63.5
[10] | 96.2 | – | 102 | 91.4 | – | –
[11] | – | 78.1 | – | – | 36.7 | 89.8
[12] | 112 | – | 104 | 79.1 | – | –
[13] | – | 79.4 | – | – | 65.2 | 57.4
[14] | – | 74.2 | – | – | 73.5 | 61.8
[15] | – | 97.6 | – | – | 57.7 | 41.2
[16] | 106 | – | 99.8 | 93.7 | – | –
[17] | 91 | – | 89.4 | 93.6 | – | –
[18] | – | 77.5 | – | – | 79.3 | 74

Oc1ncnc2[nH]ncc12 [Allopurinol]
normalised viability [%]
Details | 3 nM | 10 nM | 30 nM | 100 nM | 1000 nM | 10000 nM
[1] | – | 105 | – | – | 86.6 | 99.1
[2] | – | 114 | – | – | 116 | 102
[3] | 95.9 | – | 93.1 | 91.8 | – | –
[4] | 104 | – | 92.1 | 97 | – | –
[5] | – | 102 | – | – | 99.7 | 103
[6] | – | 108 | – | – | 120 | 106
[7] | – | 87.1 | – | – | 77.3 | 90.1
[8] | – | 87.2 | – | – | 79.2 | 96.2
[9] | – | 100 | – | – | 103 | 105
[10] | 109 | – | 98 | 106 | – | –
[11] | – | 100 | – | – | 101 | 93.4
[12] | 115 | – | 105 | 105 | – | –
[13] | – | 120 | – | – | 109 | 108
[14] | – | 119 | – | – | 123 | 108
[15] | – | 91.8 | – | – | 93.9 | 107
[16] | 98.2 | – | 91.9 | 94.8 | – | –
[17] | 113 | – | 121 | 120 | – | –
[18] | – | 95.3 | – | – | 110 | 105

O=NN(CCCl)C(=O)NCCCl [Carmustine]
normalised viability [%]
Details | 3 nM | 10 nM | 30 nM | 100 nM | 1000 nM | 10000 nM
[1] | – | 88.2 | – | – | 89.9 | 103
[2] | – | 124 | – | – | 98.8 | 125
[3] | 120 | – | 128 | 108 | – | –
[4] | 85.3 | – | 83.5 | 93 | – | –
[5] | – | 107 | – | – | 102 | 103
[6] | – | 114 | – | – | 95.3 | 115
[7] | – | 99 | – | – | 83.5 | 84.2
[8] | – | 95 | – | – | 93 | 71.5
[9] | – | 100 | – | – | 123 | 96.9
[10] | 95.1 | – | 88.9 | 96.6 | – | –
[11] | – | 91.8 | – | – | 105 | 87.5
[12] | 109 | – | 105 | 110 | – | –
[13] | – | 98.9 | – | – | 83 | 82.5
[14] | – | 87.2 | – | – | 85.4 | 86.6
[15] | – | 103 | – | – | 99.1 | 117
[16] | 108 | – | 107 | 99.4 | – | –
[17] | 94.5 | – | 96.7 | 97.5 | – | –
[18] | – | 93.1 | – | – | 94.6 | 103

CC1=C2C[C@H]3[C@@H](CC=C4C[C@@H](O)CC[C@@]43C)[C@@H]2CC[C@]12O[C@@H]1C[C@H](C)CN[C@H]1[C@H]2C [Cyclopamine]
normalised viability [%]
Details | 3 nM | 10 nM | 30 nM | 100 nM | 1000 nM | 10000 nM
[1] | – | 88.6 | – | – | 87.2 | 92
[2] | – | 135 | – | – | 114 | 132
[3] | 89.1 | – | 106 | 114 | – | –
[4] | 102 | – | 103 | 107 | – | –
[5] | – | 100 | – | – | 102 | 90.9
[6] | – | 127 | – | – | 102 | 105
[7] | – | 108 | – | – | 112 | 100
[8] | – | 100 | – | – | 74 | 105
[9] | – | 103 | – | – | 123 | 103
[10] | 104 | – | 91.9 | 99.9 | – | –
[11] | – | 110 | – | – | 80.5 | 114
[12] | 123 | – | 101 | 120 | – | –
[13] | – | 98.1 | – | – | 98.4 | 97.3
[14] | – | 96 | – | – | 107 | 99.1
[15] | – | 107 | – | – | 97.2 | 104
[16] | 114 | – | 104 | 111 | – | –
[17] | 104 | – | 117 | 110 | – | –
[18] | – | 96 | – | – | 90.2 | 103
